Assays:
[1] = target: T1, human EP1 (Homo sapiens, UniProt P34995); assay: In vitro binding to human EP1 ([3H]-PGE2 displacement, membranes); settings: HEK293 membranes, geometric mean ± SD, read-out: hEP1, Ki
T1 construct: expressed in transfected cells
T1 sequence (P34995 1-402): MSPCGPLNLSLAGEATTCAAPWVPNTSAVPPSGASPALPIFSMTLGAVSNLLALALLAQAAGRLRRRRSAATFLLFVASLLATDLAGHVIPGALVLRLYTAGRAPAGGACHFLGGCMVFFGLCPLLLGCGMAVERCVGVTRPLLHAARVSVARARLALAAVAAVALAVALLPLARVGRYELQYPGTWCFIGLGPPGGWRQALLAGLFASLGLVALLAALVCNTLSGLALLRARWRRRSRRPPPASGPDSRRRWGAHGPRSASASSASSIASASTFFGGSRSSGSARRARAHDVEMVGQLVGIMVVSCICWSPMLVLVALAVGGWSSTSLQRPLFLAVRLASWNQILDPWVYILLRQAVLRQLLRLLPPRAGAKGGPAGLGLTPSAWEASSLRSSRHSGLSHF
Protocol: (§1) hEP1 and hEP4 membranes are prepared from recombinant HEK293 cells stably expressing human EP1 (Genbank accession number AY275470) or EP4 (Genbank accession number AY429109) receptors. hEP2 and hEP3 membranes are prepared from HEK293 cells transiently transfected with EP2 (Genbank accession number AY275471) or EP3 (isoform VI: Genbank accession number AY429108) receptor plasmids. Frozen cell pellets are homogenized in homogenization buffer using a Teflon/glass homogenizer. Membrane protein is aliquoted and quick frozen on dry ice prior to storage at −80° C. Homogenization buffer contained 10 mM Tris-HCl, pH 7.4, 250 mM sucrose, 1 mM EDTA, 0.3 mM indomethacin and plus Complete™, with EDTA, obtained from Roche Molecular Biochemicals (Catalog Number 1 697 498).
(§2) Kd values for [^3H]-PGE2 binding to each receptor are determined by saturation binding studies or homologous competition. […] Non-specific binding is calculated by comparing binding in the presence and absence of 2 μM of PGE2. The membranes are harvested by filtration (TomTek harvester), washed 4 times with cold buffer (10 mM MES pH 6.0 with KOH, 10 mM MgCl2), dried in a 60° C. oven, and the radioactivity is quantified as counts per minute (CPM) using a TopCount detector. Percent specific binding is calculated as the percent of the binding in the absence of any inhibitor, corrected for binding in the presence of 2 uM of PGE2. […]

[2] = target: T2, human EP2 (Homo sapiens, UniProt P43116); assay: In vitro binding to human EP2 ([3H]-PGE2 displacement, membranes); settings: HEK293 membranes, geometric mean ± SD, read-out: hEP2, Ki
T2 construct: expressed in transfected cells; host or cells: HEK293 (transient)
T2 sequence (P43116 whole entry): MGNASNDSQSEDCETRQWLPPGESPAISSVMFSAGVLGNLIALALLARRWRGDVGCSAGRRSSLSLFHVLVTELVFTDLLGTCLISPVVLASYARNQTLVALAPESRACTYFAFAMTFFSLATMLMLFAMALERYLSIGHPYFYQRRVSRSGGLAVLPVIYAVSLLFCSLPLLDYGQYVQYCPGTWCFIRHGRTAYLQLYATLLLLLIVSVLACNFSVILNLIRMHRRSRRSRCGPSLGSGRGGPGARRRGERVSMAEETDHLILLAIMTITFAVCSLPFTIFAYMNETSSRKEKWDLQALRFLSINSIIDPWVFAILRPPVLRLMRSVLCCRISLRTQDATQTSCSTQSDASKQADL
Protocol: as §1, §2

[3] = target: T3, human EP3 (isoform VI) (Homo sapiens, UniProt P43115); assay: In vitro binding to human EP3 ([3H]-PGE2 displacement, membranes); settings: HEK293 membranes, geometric mean ± SD, read-out: hEP3, Ki
T3 construct: expressed in transfected cells; host or cells: HEK293 (transient)
T3 sequence (P43115 1-374 isoform P43115-4): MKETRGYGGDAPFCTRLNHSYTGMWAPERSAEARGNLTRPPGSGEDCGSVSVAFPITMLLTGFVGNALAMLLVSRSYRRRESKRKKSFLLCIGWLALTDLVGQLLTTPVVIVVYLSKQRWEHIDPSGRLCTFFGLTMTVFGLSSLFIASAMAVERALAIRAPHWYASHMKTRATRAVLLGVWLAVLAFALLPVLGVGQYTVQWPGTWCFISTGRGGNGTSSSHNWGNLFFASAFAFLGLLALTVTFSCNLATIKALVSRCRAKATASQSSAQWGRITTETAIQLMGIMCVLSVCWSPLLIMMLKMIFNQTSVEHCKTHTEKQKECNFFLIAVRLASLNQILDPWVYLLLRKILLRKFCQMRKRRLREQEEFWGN
Protocol: as §1, §2

[4] = target: T4, human EP4 (Homo sapiens, UniProt P35408); assay: In vitro binding to human EP4 ([3H]-PGE2 displacement, membranes); settings: HEK293 membranes, geometric mean ± SD, read-out: hEP4, Ki
T4 construct: expressed in transfected cells
T4 sequence (P35408 whole entry): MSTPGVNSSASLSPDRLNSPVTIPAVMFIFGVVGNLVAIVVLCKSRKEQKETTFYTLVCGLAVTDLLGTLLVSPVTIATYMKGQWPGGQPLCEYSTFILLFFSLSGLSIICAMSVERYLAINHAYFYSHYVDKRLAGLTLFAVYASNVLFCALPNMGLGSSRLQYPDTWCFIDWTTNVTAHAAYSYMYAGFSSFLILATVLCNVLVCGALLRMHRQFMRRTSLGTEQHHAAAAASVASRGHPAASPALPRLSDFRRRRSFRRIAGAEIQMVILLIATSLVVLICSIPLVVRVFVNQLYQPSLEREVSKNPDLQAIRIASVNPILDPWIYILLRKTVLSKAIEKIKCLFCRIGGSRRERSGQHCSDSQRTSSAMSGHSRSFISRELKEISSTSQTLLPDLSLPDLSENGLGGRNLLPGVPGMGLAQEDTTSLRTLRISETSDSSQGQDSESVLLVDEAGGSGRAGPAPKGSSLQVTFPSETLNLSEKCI
Protocol: as §1, §2

[5] = target: T4, human EP4; assay: In vitro human EP4 functional antagonist activity (PGE2-stimulated cAMP, HTRF, HEK293); type: cell-based; settings: HEK293 cells expressing human EP4, EC80 of PGE2; geometric mean ± SD; read-out: IC50, inhibition of PGE2-stimulated cAMP production, human EP4
Protocol: Assays are conducted in recombinant HEK293 cells stably expressing human EP4 receptor. The cell lines are maintained by culturing in DMEM with high glucose and pyridoxine hydrochloride (Invitrogen) supplemented with 10% fetal bovine serum (FBS), 1 mM sodium pyruvate, 10 mM HEPES, […] and 2 mM L-glutamine. Confluent cultures are grown at 37° C. in an atmosphere containing 5% CO2. Cells are harvested using 2.5% Trypsin-EDTA, suspended in freeze media (FBS with 6% DMSO) at 10^7 cells/mL and aliquots are stored in liquid nitrogen. Just before assay, cells are thawed in DMEM, centrifuged, and resuspended in cAMP buffer.
The inhibition of PGE2-stimulated cAMP production by EP4 antagonists is measured using HTRF; (Cisbio catalog #62AM4PEB). […] The HTRF signal is detected using an EnVision® plate reader (Perkin-Elmer) to calculate the ratio of fluorescence at 665 nm to 620 nm. […] Results are expressed as the geometric mean±standard deviation; n=number of independent determinations. The standard deviation is calculated by the delta method, being Slog IC50×geometric mean×ln(10).

[6] = target: T5, rat EP4 (Rattus norvegicus, UniProt P43114); assay: In vitro rat EP4 functional antagonist activity (PGE2-stimulated cAMP, HTRF, HEK293); type: cell-based; settings: HEK293 cells expressing rat EP4, PGE2 at EC80, cAMP HTRF; read-out: IC50 measured at rat EP4
T5 construct: expressed in transfected cells
T5 sequence (P43114 whole entry): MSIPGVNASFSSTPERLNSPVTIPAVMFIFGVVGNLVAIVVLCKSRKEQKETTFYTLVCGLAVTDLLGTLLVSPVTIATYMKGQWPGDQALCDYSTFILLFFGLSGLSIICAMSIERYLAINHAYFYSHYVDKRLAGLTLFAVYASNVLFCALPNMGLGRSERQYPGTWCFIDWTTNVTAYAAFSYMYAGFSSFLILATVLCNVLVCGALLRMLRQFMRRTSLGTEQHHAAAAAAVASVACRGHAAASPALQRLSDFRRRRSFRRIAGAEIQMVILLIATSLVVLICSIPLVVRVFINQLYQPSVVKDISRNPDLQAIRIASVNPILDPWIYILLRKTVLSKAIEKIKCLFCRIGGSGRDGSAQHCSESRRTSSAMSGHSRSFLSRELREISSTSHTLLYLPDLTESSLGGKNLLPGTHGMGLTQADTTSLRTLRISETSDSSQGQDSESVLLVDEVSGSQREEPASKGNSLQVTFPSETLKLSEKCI
Protocol: Rat EP4 cDNA (Genebank Accession# NM 03276) is cloned into pcDNA 3.1 vector and subsequently transfected in HEK293 cells for receptor expression. Rat EP4 stable clone is scaled up and then frozen down as cell bank for future compounds screening. To test EP4 antagonist compounds in rEP4 cells, thaw the frozen cells and then resuspend cells in cAMP assay buffer. The cAMP buffer is made by HBSS without Phenol Red (Hyclone, SH30268) supplemented with 20 mM HEPES (Hyclone, SH30237), 0.1% BSA (Gibco, 15260) and 125 μM IBMX (Sigma, 15879). The cells are plated into 96-well half area flat-bottom polystyrene black plates (Costar 3694). Compounds are serial diluted with DMSO to give 10-point concentration response curves. Then diluted compounds are added into cAMP assay buffer which contains PGE2 (Cayman 14010, in a concentration predetermined to produce an EC80) at ratio of DMSO/buffer at 1/100. The cells are treated with compounds in the presence of PGE2 (EC80 concentration) for 30 minutes at room temperature. The cAMP levels generated from the cells are quantified by a cAMP HTRF assay kit (Cisbio 62AM4PEC). The plates are read on an EnVision plate reader using HTRF optimized protocol (PerkinElmer). IC50's are calculated using Graphpad Prism (v. 4) nonlinear regression, sigmoidal dose response curve fitting.

[7] = test system: LPS-induced TNFα production in human whole blood; assay: In vitro antagonist activity in human whole blood (reversal of PGE2 inhibition of LPS-induced TNFα); type: cell-based; settings: 10 μg/mL LPS, 10 nM PGE2, geometric mean ± SD, read-out: IC50, reversal of inhibitory effect of PGE2 on LPS-induced TNFα production
From the text: The inhibitory effects of PGE2 on LPS-induced TNFα production from macrophages/monocytes are believed to be mediated by EP4 receptors (See Murase, A., et al., Life Sciences, 82:226-232 (2008)). The ability of the compound of Example 1 to reverse the inhibitory effect of PGE2 on LPS-induced TNFα production in human whole blood is an indicia of functional activity.
Blood is collected from normal volunteer donors into sodium heparin vacutainer tubes. Donors have not taken NSAIDs or celecoxib within 48 hours or glucocorticoids within two weeks of the donation. All tubes/donor are pooled into 50 mL Falcon conical centrifuge tubes and 98 μL/well is distributed into 96-well tissue culture plates (Falcon 3072). […] TNFα levels in 2 μL plasma are quantified by a commercially available enzyme immunoassay (R&D Systems DY210), using Immulon 4 HBX plates (Thermo 3855) and 3,3′,5,5′ tetramethylbiphenyl-4,4′-diamine substrate (KPL 50-76-03). The plates are read at A450-A650 on a plate reader (Molecular Devices Versamax) using SOFTmaxPRO (v. 4.3.1) software. IC50s are calculated using Graphpad Prism (v. 4) nonlinear regression, sigmoidal dose response curve fitting. Results are expressed as the geometric mean±standard deviation; n=number of independent determinations. The standard deviation is calculated by the delta method, being SDlog IC50×geometric mean×ln(10).

| Ki [1] [nM] | Ki [2] [nM] | Ki [3] [nM] | Ki [4] [nM] | IC50 [5] [nM] | IC50 [6] [nM] | IC50 [7] [nM] | SMILES |
| --- | --- | --- | --- | --- | --- | --- | --- |
| > 18800 | 5850 ± 1010 | > 14800 | 2.18 ± 1.74 | 2.31 ± 2.02 | 1.51 | 59.5 ± 37.8 | Cc1ccc(-c2cccc(CO)c2)cc1C(=O)Nc1c(C)ccc(C(=O)O)c1C [Example 1, 3-[[5-[3-(Hydroxymethyl)phenyl]-2-methyl-benzoyl]amino]-2,4-dimethyl-benzoic acid] |
| > 17500 | > 18900 | > 14000 | 2.07 ± 1.31 | – | – | – | Cc1ccc(-c2cccc(CO)c2)nc1C(=O)Nc1c(C)ccc(C(=O)O)c1C [Example 22, 3-[[6-[3-(Hydroxymethyl)phenyl]-3-methyl-pyridine-2-carbonyl]amino]-2,4-dimethyl-benzoic acid] |

From patent US10005721B2, “Dimethylbenzoic acid compounds” (Eli Lilly and Company, priority 2013, dated 2018)
